Our source for the EC50 values is patent US12441730B2, “PRMT5 inhibitors” (Merck Sharp & Dohme LLC, priority 2019, dated 2025).

Test [1] deals with T1, Full-length (FL)-PRMT5-MEP50 enzyme complex (Homo sapiens, UniProt O14744).
T1 construct: Full-length (FL)-PRMT5-MEP50 enzyme complex (recombinant proteins from baculovirus-transfected Sf21 cells: FL-PRMT5; MW=73837 kDa and FL-MEP50; MW=38614); made in house; host or cells: baculovirus-transfected Sf21 cells
As to the kind of experiment: PRMT5-MEP50 Enzyme Methylation Assay (Version A). Format: biochemical. The gist of the method:
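Compound was pre-incubated with enzyme for 60 min, then reacted 150 min at 37° C. at final 1.0 nM PRMT5-MEP50, 15 μM SAM and 75 nM biotinylated H4R3(Me1) peptide, in 50 mM Bicine pH 8.0 with 1% DMSO. SAMDI mass-spectrometric readout of Me1→Me2 conversion. EC50 from 4- or 7-parameter regression.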

For test [2], the system named is symmetric dimethylation of arginine (SDMA) of PRMT5 substrates in MCF-7 cells. As to the kind of experiment: PRMT5 Cell Target Engagement (TE) Assay. Format: cell-based. Conditions: 3 days treatment, SDMA high content imaging. An outline of the steps: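 Readout is single-cell nuclear symmetric-dimethylarginine immunofluorescence (Alexa488), normalized to DMSO-treated cells. Compounds were applied to MCF-7 cells for 3 days at 37 °C, top concentration 10000 nM in 1:3 steps over ten points; curves fitted with 4-parameter robust fit.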

Where [3] appears, read: second value of 7 parameter biphasic fit, read-out: Enzyme Methylation Assay Version A (EC50 2).
Where [4] appears, read: single EC50 = 4 parameter single site sigmoidal fit, EC50 1 = first value of 7 parameter biphasic fit, read-out: Enzyme Methylation Assay Version A (EC50 or EC50 1).

Like-named read-outs stand apart in the source and are kept apart here.

T1 sequence (O14744 whole entry): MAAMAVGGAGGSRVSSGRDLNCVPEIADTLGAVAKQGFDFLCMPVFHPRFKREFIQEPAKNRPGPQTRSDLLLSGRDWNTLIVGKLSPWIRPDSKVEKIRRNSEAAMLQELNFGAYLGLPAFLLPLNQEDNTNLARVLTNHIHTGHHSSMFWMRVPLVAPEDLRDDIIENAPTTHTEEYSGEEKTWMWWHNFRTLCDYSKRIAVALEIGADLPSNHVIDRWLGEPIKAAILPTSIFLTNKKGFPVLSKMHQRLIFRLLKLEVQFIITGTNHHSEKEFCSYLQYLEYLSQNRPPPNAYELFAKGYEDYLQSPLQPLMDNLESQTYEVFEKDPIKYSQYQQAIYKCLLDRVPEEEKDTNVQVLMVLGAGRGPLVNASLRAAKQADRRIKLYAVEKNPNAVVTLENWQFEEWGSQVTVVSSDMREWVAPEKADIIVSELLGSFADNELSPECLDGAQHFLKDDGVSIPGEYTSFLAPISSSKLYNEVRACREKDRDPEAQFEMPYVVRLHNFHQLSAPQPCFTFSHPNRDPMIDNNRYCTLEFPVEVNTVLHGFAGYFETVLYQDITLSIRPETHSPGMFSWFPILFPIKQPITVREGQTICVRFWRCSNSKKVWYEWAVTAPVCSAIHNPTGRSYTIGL
T1 sequence (Q9BQA1 whole entry partner): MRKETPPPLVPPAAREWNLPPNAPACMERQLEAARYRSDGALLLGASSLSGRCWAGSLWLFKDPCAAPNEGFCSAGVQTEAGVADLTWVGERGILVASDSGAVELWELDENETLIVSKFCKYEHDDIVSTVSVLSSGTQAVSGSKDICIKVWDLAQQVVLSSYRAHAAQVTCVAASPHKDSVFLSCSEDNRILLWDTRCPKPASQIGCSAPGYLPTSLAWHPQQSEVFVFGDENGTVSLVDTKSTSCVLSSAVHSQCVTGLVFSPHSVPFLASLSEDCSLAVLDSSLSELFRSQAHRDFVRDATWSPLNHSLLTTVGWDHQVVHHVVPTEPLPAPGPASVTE

For `O=C(c1cn2c(n1)C(C1CCOC1)CC(C(F)(F)F)C2)N1CC[C@]2(Cc3ccccc3CN2)[C@H](O)C1` (single isomer, unassigned) [Example 161, ((3R,3′R)-3′-hydroxy-1,4-dihydro-2H-spiro[isoquinoline-3,4′-piperidin]-1′-yl)((6S,8S or 6R,8R)-8-((S or R)-tetrahydrofuran-3-yl)-6-(trifluoromethyl)-5,6,7,8-tetrahydroimidazo[1,2-a]pyridin-2-yl)methanone], the 50% effective concentration (EC50) – broadly, the concentration giving half of the maximal effect – stood at 9.12 µM in test [1] (setting [3]), 0.0059 µM in test [1] (setting [4]) and 0.374 µM in test [2].
In the case of `O=C(c1cn2c(n1)C(C1CCOC1)CC(C(F)(F)F)C2)N1CC[C@]2(Cc3ccccc3CN2)[C@H](O)C1` (single isomer, unassigned) [Example 162, ((3R,3′R)-3′-hydroxy-1,4-dihydro-2H-spiro[isoquinoline-3,4′-piperidin]-1′-yl)((6S,8S or 6R,8R)-8-((S or R)-tetrahydrofuran-3-yl)-6-(trifluoromethyl)-5,6,7,8-tetrahydroimidazo[1,2-a]pyridin-2-yl)methanone], the half-maximal effective concentration (EC50) is 93.3 µM in test [1] (setting [3]), 0.26 µM in test [1] (setting [4]) and 7.52 µM in test [2].
With `O=C(c1cn2c(n1)C(C1CCOC1)CC(C(F)(F)F)C2)N1CC[C@]2(Cc3ccccc3CN2)[C@H](O)C1` (single isomer, unassigned) [Example 163, ((3R,3′R)-3′-hydroxy-1,4-dihydro-2H-spiro[isoquinoline-3,4′-piperidin]-1′-yl)((6S,8S or 6R,8R)-8-((S or R)-tetrahydrofuran-3-yl)-6-(trifluoromethyl)-5,6,7,8-tetrahydroimidazo[1,2-a]pyridin-2-yl)methanone], the EC50 in test [1] (setting [3]) amounted to 36.7 µM; in test [1] (setting [4]) it was 0.0966 µM; in test [2], 1.59 µM.
Taken in the same sequence, the figures for `N#CCCC1CC(C(F)(F)F)Cn2cc(C(=O)N3CC[C@]4(Cc5ccccc5CN4)[C@H](O)C3)nc21` (single isomer, unassigned) [Example 164, 3-((6R,8S or 6S,8R)-2-((3R,3′R)-3′-hydroxy-1,4-dihydro-2H-spiro[isoquinoline-3,4′-piperidine]-1′-carbonyl)-6-(trifluoromethyl)-5,6,7,8-tetrahydroimidazo[1,2-a]pyridin-8-yl)propanenitrile] were 4.62 µM, 0.00483 µM and 0.205 µM.
Take `N#CCCC1CC(C(F)(F)F)Cn2cc(C(=O)N3CC[C@]4(Cc5ccccc5CN4)[C@H](O)C3)nc21` (single isomer, unassigned) [Example 165, 3-((6R,8S or 6S,8R)-2-((3R,3′R)-3′-hydroxy-1,4-dihydro-2H-spiro[isoquinoline-3,4′-piperidine]-1′-carbonyl)-6-(trifluoromethyl)-5,6,7,8-tetrahydroimidazo[1,2-a]pyridin-8-yl)propanenitrile]: the EC50 in test [1] (setting [3]) came to 26.6 µM; in test [1] (setting [4]), 0.0822 µM; in test [2], 0.841 µM.
With `CC1CC(C(F)(F)F)Cn2cc(C(=O)N3CC[C@]4(Cc5ccccc5CN4)[C@H](O)C3)nc21` (single isomer, unassigned) [Example 166, ((3R,3′R)-3′-hydroxy-1,4-dihydro-2H-spiro[isoquinoline-3,4′-piperidin]-1′-yl)((6R,8R or 6S,8S)-8-methyl-6-(trifluoromethyl)-5,6,7,8-tetrahydroimidazo[1,2-a]pyridin-2-yl)methanone], the results for the EC50 in test [1] (setting [3]), in test [1] (setting [4]) and in test [2] were 1.64 µM, 0.00364 µM and 0.0337 µM, respectively.
With `CC1CC(C(F)(F)F)Cn2cc(C(=O)N3CC[C@]4(Cc5ccccc5CN4)[C@H](O)C3)nc21` (single isomer, unassigned) [Example 167, ((3R,3′R)-3′-hydroxy-1,4-dihydro-2H-spiro[isoquinoline-3,4′-piperidin]-1′-yl)((6R,8R or 6S,8S)-8-methyl-6-(trifluoromethyl)-5,6,7,8-tetrahydroimidazo[1,2-a]pyridin-2-yl)methanone], the 50% effective concentration (EC50) turned out to be 3.63 µM in test [1] (setting [3]), 0.00955 µM in test [1] (setting [4]) and 0.194 µM in test [2].
Take `COC(C)c1cc(Br)cn2cc(C(=O)N3CC[C@]4(Cc5cc(Cl)ccc5CN4)[C@H](O)C3)nc12` (single isomer, unassigned) [Example 225]: the EC50 amounted to 0.398 µM in test [1] (setting [3]); 0.0021 µM in test [1] (setting [4]); 0.0226 µM in test [2] (Homo sapiens, MCF7, 72 h).
As to `COC(C)c1cc(Br)cn2cc(C(=O)N3CC[C@]4(Cc5ccc(Cl)cc5CN4)[C@H](O)C3)nc12` (single isomer, unassigned) [Example 226], the EC50 in test [1] (setting [4]) came out at 0.0014 µM; in test [2] (Homo sapiens, MCF7, 72 h), 0.00504 µM.
On to `Cc1ccc2c(c1)C[C@]1(CCN(C(=O)c3cn4cc(C5CC5)cnc4n3)C[C@H]1O)NC2` (single isomer, unassigned) [Example 227], for which the EC50 in test [1] (setting [4]) came out at 0.00847 µM; in test [2] (Homo sapiens, MCF7, 72 h), 0.0267 µM.
Regarding `COc1nc2nc(C(=O)N3CC[C@]4(Cc5ccccc5CN4)[C@H](O)C3)cn2cc1Br` (single isomer, unassigned) [Example 248], the EC50 in test [1] (setting [3]) amounted to 0.153 µM; in test [1] (setting [4]), 0.000557 µM; in test [2] (Homo sapiens, MCF7, 72 h), 0.00935 µM.
Regarding `Cn1c(=O)c(Br)cn2cc(C(=O)N3CC[C@]4(Cc5ccccc5CN4)[C@H](O)C3)nc12` (single isomer, unassigned) [Example 249], the EC50 in test [1] (setting [3]) stood at 8.51 µM; in test [1] (setting [4]), 0.0208 µM; in test [2] (Homo sapiens, MCF7, 72 h) it was 0.311 µM.
As for `COC(C)(C)c1ccc2nc(C(=O)N3CC[C@]4(Cc5ccccc5CN4)[C@H](O)C3)cn2c1` (stereo in doubt) [Example 46, (3′-hydroxy-2,4-dihydro-1H-spiro[isoquinoline-3,4′-piperidin]-1′-yl)(6-(2-methoxypropan-2-yl)imidazo[1,2-a]pyridin-2-yl)methanone], the EC50 in test [1] (setting [3]) amounted to 0.138 µM; in test [1] (setting [4]) it was 0.000498 µM; in test [2] (Homo sapiens, MCF7, 72 h) it was 0.0271 µM.
As to `O=C(c1cn2cc(Br)ccc2n1)N1CC[C@]2(Cc3ccccc3CN2)[C@H](O)C1` [Example 1, (6-bromoimidazo[1,2-a]pyridin-2-yl)((3R,3′R)-3′-hydroxy-1,4-dihydro-2H-spiro[isoquinoline-3,4′-piperidin]-1′-yl)methanone], the 50% effective concentration (EC50) in test [1] (setting [3]) came out at 0.0753 µM; in test [1] (setting [4]) it was 0.000501 µM; in test [2] (Homo sapiens, MCF7, 72 h) it was 0.00292 µM.
With `CN(C)C(=O)c1ccc2nc(C(=O)N3CC[C@]4(Cc5ccccc5CN4)[C@H](O)C3)cn2c1` [Example 2, 2-((3R,3′R)-3′-hydroxy-2,4-dihydro-1H-spiro[isoquinoline-3,4′-piperidin]-1′-ylcarbonyl)-N,N-dimethylimidazo[1,2-a]pyridine-6-carboxamide], the concentration giving a half-maximal response (EC50) was 1.38 µM in test [1] (setting [3]); 0.000629 µM in test [1] (setting [4]); 0.0758 µM in test [2] (Homo sapiens, MCF7, 72 h).
Regarding `O=C(c1cn2cc(Cl)cnc2n1)N1CC[C@]2(Cc3ccccc3CN2)[C@H](O)C1` [Example 3, (6-chloroimidazo[1,2-a]pyrimidin-2-yl)((3R,3′R)-3′-hydroxy-1,4-dihydro-2H-spiro[isoquinoline-3,4′-piperidin]-1′-yl)methanone], the EC50 came to 0.918 µM in test [1] (setting [3]); 0.00145 µM in test [1] (setting [4]); 0.0145 µM in test [2] (Homo sapiens, MCF7, 72 h).
Taken in the same sequence, the figures for `O=C(c1cn2cc(Br)cc(CO)c2n1)N1CC[C@]2(Cc3ccccc3CN2)[C@H](O)C1` [Example 6, (6-bromo-8-(hydroxymethyl)imidazo[1,2-a]pyridin-2-yl)((3R,3’R)-3′-hydroxy-1,4-dihydro-2H-spiro[isoquinoline-3,4′-piperidin]-1′-yl)methanone] were 0.22 µM, 0.00071 µM and 0.00324 µM.
The corresponding values for `O=C(c1cn2cc(Br)cc(I)c2n1)N1CC[C@]2(Cc3ccccc3CN2)[C@H](O)C1` [Example 7] are 0.0525 µM, 0.000639 µM and 0.000545 µM.
Consider `COc1nc(Br)cn2cc(C(=O)N3CC[C@]4(Cc5ccccc5CN4)[C@H](O)C3)nc12` [Example 8], for which the EC50 came to 0.403 µM in test [1] (setting [3]); 0.00153 µM in test [1] (setting [4]); 0.00363 µM in test [2] (Homo sapiens, MCF7, 72 h).
The corresponding values for `O=C(c1ccc2c(O)c(C3CC3)cnc2c1)N1CC[C@]2(Cc3ccccc3CN2)[C@H](O)C1` [Example 9, (3-cyclopropyl-4-hydroxyquinolin-7-yl)((3R,3’R)-3′-hydroxy-1,4-dihydro-1′H,2H-spiro[isoquinoline-3,4′-piperidin]-1′-yl)methanone] are 4.68 µM, 0.0135 µM and 0.694 µM.
Turning to `CCOc1nc(Br)cn2cc(C(=O)N3CC[C@]4(Cc5ccccc5CN4)[C@H](O)C3)nc12` [Example 10], the EC50 turned out to be 0.18 µM in test [1] (setting [3]); 0.000815 µM in test [1] (setting [4]); 0.00421 µM in test [2] (Homo sapiens, MCF7, 72 h).
`CC(C)Oc1nc(Br)cn2cc(C(=O)N3CC[C@]4(Cc5ccccc5CN4)[C@H](O)C3)nc12` [Example 11, {6-bromo-8-[(propan-2-yl)oxy]imidazo[1,2-a]pyrazin-2-yl}((3R,3’R)-3′-hydroxy-1,4-dihydro-1′H,2H-spiro[isoquinoline-3,4′-piperidin]-1′-yl)methanone]: the EC50 in test [1] (setting [3]) worked out at 0.0886 µM; in test [1] (setting [4]), 0.000495 µM; in test [2] (Homo sapiens, MCF7, 72 h) it was 0.0042 µM.
